{"source": "ChEMBL document CHEMBL1147290", "about": "“Toxicants from mangrove plants, V. Isolation of the piscicide, 2-hydroxy-5-methoxy-3-undecyl-1,4 benzoquinone (5-O-methylembelin) from Aegiceras corniculatum” (J Nat Prod, 1989)", "key": {"[1]": {"tested_on": "Globisporangium ultimum", "assay": "Antifungal activity against Pythium ultimum at 1 mg", "type": "functional", "details": "read-out: IZ"}, "[2]": {"tested_on": "Oreochromis niloticus", "assay": "Toxicity in Tilapia nilotica at 1 ppm within 75 mins", "type": "organism-based", "details": "in vivo, 1.25 h"}}}
{"smiles": "CCCCCCCCCCCC1=C(O)C(=O)C=C(OC)C1=O", "note": "[5-O-METHYLEMBELIN]", "values": [{"measurement": "zone of inhibition at 1000 µg/disc", "setting": "[1]", "value": 8, "unit": "mm"}, {"measurement": "Activity", "setting": "[2]", "value": "Toxic"}]}
